From US20260256789A1, “METHODS FOR TREATMENT OF CANCER” (Frontier Medicines Corporation, priority 2022, published 2026)
pIC50: −log10 of the molar value.

Target: T1, KRAS G12C (GMPPNP-loaded) and cRAF Ras-binding domain (Homo sapiens, UniProt P01116, C118S/C51S/C80L/G12C)
T1 construct: truncated version comprising amino acids 1-169
Test: Inhibition of KRAS G12C and cRAF binding (AlphaScreen)
Conditions: KRAS G12C preloaded with GTP analogue GMPPNP, 2 hours preincubation
Text: The ability of compounds of Formula (A), Formula (B) and Formula (C), and pharmaceutically acceptable salts and/or isotopologues thereof, to inhibit activity of the GTP-bound form of KRAS G12C can be tested using methods such as the in vitro assay described in Example 179 below. Example 179 describes determining, for various compounds, the half-maximal inhibition (IC50) of KRAS G12C loaded with GTP analogue GMPPNP from binding to cRaf, as the Ras-binding domain (RBD). Example 180 describes determining, for various compounds, the half-maximal inhibition (IC50) of KRAS G12C loaded with GTP analogue GMPPNP from binding to PI3Kα, as the Ras-binding domain (RBD). Example 181 describes testing compounds for the ability to inhibit cell viability in MCF10A G12C/A59G mutant, which abrogates GTPase activity, thus preventing hydrolysis of GTP to GDP.
The AlphaScreen technology was used to determine IC50s for compound inhibition of KRAS G12C (present as the Cys-light (C51S, C80L and C118S), truncated version comprising amino acids 1-169) and cRAF interaction. Compounds were diluted in 100% DMSO and each compound concentration was spotted at 200 nl/well onto low volume, white 384 well plates. The KRAS G12C contained a biotin-AviTag and the cRaf, as Ras-binding domain (amino acids 50-131, RBD), was GST-tagged. KRAS G12C was preloaded with the GTP analogue Guanosine 5′-[β,γ-imido]triphosphate (GMPPNP). The KRAS G12C was diluted in 25 mM Hepes, pH 7.4, 150 mM NaCl, 5 mM MgCl2, 0.01% TritonX-100 and 10 μM GMPPNP and added at 10 ul/well to compound-spotted plates resulting in a DMSO concentration of 2%. Plates were incubated for 2 hours. A mixture of RBD and the AlphaScreen streptavidin donor and glutathione acceptor beads diluted in 25 mM Hepes, pH 7.4, 150 mM NaCl, 5 mM MgCl2, 0.01% TritonX-100 and 2% DMSO was then added at 10 ul/well and incubated for 60-90 minutes before the samples were read for emission at 570 nm after excitation of the donor beads at 680 nm. All incubations were performed at room temperature. The final top compound concentration was 50 μM with 1:3 titrations for 10-point dose response curves. Final assay conditions were 0.5 nM KRAS G12C, 0.75 nM RBD and 5 μg/ml each of AlphaScreen donor and acceptor beads. IC50s were determined using nonlinear regression fit of [inhibitor] vs. response (4 parameters). […]

T1 sequence (P01116 1-169 isoform P01116-2 G12C/C51S/C80L/C118S): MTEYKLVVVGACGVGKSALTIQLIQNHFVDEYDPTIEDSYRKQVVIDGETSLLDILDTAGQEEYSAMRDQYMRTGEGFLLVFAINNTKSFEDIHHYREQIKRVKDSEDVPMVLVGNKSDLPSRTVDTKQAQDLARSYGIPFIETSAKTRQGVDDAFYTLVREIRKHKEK

Compound | pIC50
C=CC(=O)N1CC[C@@H](N(C)c2nc(OC[C@@]34CCCN3C[C@H](F)C4)nc3c(F)c(-c4cc(F)cc(Cl)c4C4CC4)ncc23)C1 [Example 191] | 6.30 to 7.00
CN1CC[C@H]1/C=C/C(=O)N1CC[C@@H](N(C)c2nc(OC[C@@]34CCCN3C[C@H](F)C4)nc3c(F)c(-c4nc(N)cc5cccc(F)c45)ncc23)C1 (single isomer, unassigned) [Example 2] | 6.30 to 7.00
CN(c1nc(OC[C@@]23CCCN2C[C@H](F)C3)nc2c(F)c(-c3cccc(Cl)c3C3CC3)ncc12)[C@@H]1CCN(C(=O)/C=C/CN2CC[C@@H](F)C2)C1 [Example 262] | 7.00 to 8.00
C=CC(=O)N1CC(CN(C)c2nc(OC[C@@]34CCCN3C[C@H](F)C4)nc3c2C[C@@H](C)[C@H](c2nc(N)cc(C)c2C(F)(F)F)C3)C1 [Example 132] | 6.30 to 7.00
C=CC(=O)N1CC(CN(C)c2nc(OC[C@@]34CCCN3C[C@H](F)C4)nc3c(F)c(-c4nc(N)cc5cccc(F)c45)ncc23)C1 [Example 128, 1-(3-(((7-(3-amino-8-fluoroisoquinolin-1-yl)-8-fluoro-2-(((2R,7aS)-2-fluorotetrahydro-1H-pyrrolizin-7a(5H)-yl)methoxy)pyrido[4,3-d]pyrimidin-4-yl)(methyl)amino)methyl)azetidin-1-yl)prop-2-en-1-one] | ≤ 6.30
Cc1cc(N)nc(-c2ncc3c(N(C)CC4CN(C(=O)/C=C/c5nc(C6CC6)no5)C4)nc(OC[C@@]45CCCN4C[C@H](F)C5)nc3c2F)c1C(F)(F)F [Example 176] | > 8.00
C=CC(=O)N1CC[C@@H](N(C)c2nc(OC[C@@]34CCCN3C[C@H](F)C4)nc3c(F)c(-c4cccn5cncc45)ncc23)C1 [Example 219] | ≤ 6.30
Cc1cc(N)nc(-c2ncc3c(N(C)CC4CN(C(=O)/C=C/c5nc(C(C)C)no5)C4)nc(OC[C@@]45CCCN4C[C@H](F)C5)nc3c2F)c1C [Example 85] | 6.30 to 7.00
CN(CC1CN(C(=O)/C=C/CN2CCOCC2)C1)c1nc(OC[C@@]23CCCN2C[C@H](F)C3)nc2c(F)c(-c3nc(N)cc4cccc(F)c34)ncc12 [Example 80, (E)-1-(3-(((7-(3-amino-8-fluoroisoquinolin-1-yl)-8-fluoro-2-(((2R,7aS)-2-fluorotetrahydro-1H-pyrrolizin-7a(5H)-yl)methoxy)pyrido[4,3-d]pyrimidin-4-yl)(methyl)amino)methyl)azetidin-1-yl)-4-morpholinobut-2-en-1-one] | ≤ 6.30
C=CC(=O)N1CC[C@@H](N(C)c2nc(OC[C@@]34CCCN3C[C@H](F)C4)nc3c(F)c(-c4ncn5ccccc45)ncc23)C1 [Example 246] | ≤ 6.30
CN1CC[C@@H]1/C=C/C(=O)N1CC[C@@H](N(C)c2nc(OC[C@@]34CCCN3C[C@H](F)C4)nc3c(F)c(-c4cc(O)cc(Cl)c4C4CC4)ncc23)C1 [Example 213] | > 8.00
C=CC(=O)N1CC(CN(C)c2nc(OC[C@@]34CCCN3C[C@H](F)C4)nc3c(F)c(-c4nc(N)cc(C)c4C(F)(F)F)ncc23)C1 [Example 64, 1-(3-(((7-(6-amino-4-methyl-3-(trifluoromethyl)pyridin-2-yl)-8-fluoro-2-(((2R,7aS)-2-fluorotetrahydro-1H-pyrrolizin-7a(5H)-yl)methoxy)pyrido[4,3-d]pyrimidin-4-yl)(methyl)amino)methyl)azetidin-1-yl)prop-2-en-1-one] | 7.00 to 8.00
CC(C)c1noc(/C=C/C(=O)N2CC[C@@H](N(C)c3nc(OC[C@@]45CCCN4C[C@H](F)C5)nc4c(F)c(-c5nc(N)ccc5F)ncc34)C2)n1 [Example 178, (E)-1-((R)-3-((7-(6-amino-3-fluoropyridin-2-yl)-8-fluoro-2-(((2R,7aS)-2-fluorotetrahydro-1H-pyrrolizin-7a(5H)-yl)methoxy)pyrido[4,3-d]pyrimidin-4-yl)(methyl)amino)pyrrolidin-1-yl)-3-(3-isopropyl-1,2,4-oxadiazol-5-yl)prop-2-en-1-one] | ≤ 6.30
C=CC(=O)N1CC(CN(C)c2nc(OCC34CCCN3CCC4)nc3c2C[C@H](C)[C@@H](c2nc(N)cc(C)c2C(F)(F)F)C3)C1 [Example 109] | ≤ 6.30
CN(c1nc(OC[C@@]23CCCN2C[C@H](F)C3)nc2c(F)c(-c3cccc(Cl)c3C3CC3)ncc12)[C@@H]1CCN(C(=O)C#CCN2CCOCC2)C1 [Example 223] | 6.30 to 7.00
C=CC(=O)N1CC[C@@H](N(C)c2nc(OC[C@@]34CCCN3C[C@H](F)C4)nc3c(F)c(-c4cc(O)cnc4C4CC4)ncc23)C1 [Example 253] | ≤ 6.30
C=CC(=O)N1CC[C@@H](N(C)c2nc(OC[C@@]34CCCN3C[C@H](F)C4)nc3c(F)c(-c4nc(N)cc(C)c4C)ncc23)C1 [Example 171] | 6.30 to 7.00
Cc1nsc(/C=C/C(=O)N2CC(CN(C)c3nc(OC[C@@]45CCCN4C[C@H](F)C5)nc4c(F)c(-c5nc(N)cc(C)c5C(F)(F)F)ncc34)C2)n1 [Example 4, (E)-1-(3-(((7-(6-amino-4-methyl-3-(trifluoromethyl)pyridin-2-yl)-8-fluoro-2-(((2R,7aS)-2-fluorohexahydro-1H-pyrrolizin-7a-yl)methoxy)pyrido[4,3-d]pyrimidin-4-yl)(methyl)amino)methyl)azetidin-1-yl)-3-(3-methyl-1,2,4-thiadiazol-5-yl)prop-2-en-1-one] | 7.00 to 8.00

Results, then the molecule that gave them:

pIC50 | Compound
7.00 to 8.00 | Cc1noc(/C=C/C(=O)N2CC[C@@H](N(C)c3nc(OCC45CCCN4CCC5)nc4c3C[C@H](C)C(c3nc(N)cc(C)c3C(F)(F)F)C4)C2)n1 (stereo in doubt) [Example 163]
7.00 to 8.00 | C=CC(=O)N1CC[C@@H](N(C)c2nc(OCC34CCCN3CCC4)nc3c2CC(C)C(c2nc(N)cc(C)c2C(F)(F)F)C3)C1 (stereo partly drawn) [Example 32, 1-((3R)-3-((7-(6-amino-4-methyl-3-(trifluoromethyl)pyridin-2-yl)-2-((hexahydro-1H-pyrrolizin-7a-yl)methoxy)-6-methyl-5,6,7,8-tetrahydroquinazolin-4-yl)(methyl)amino)pyrrolidin-1-yl)prop-2-en-1-one]
7.00 to 8.00 | Cc1noc(/C=C/C(=O)N2CC[C@@H](N(C)c3nc(OCC45CCCN4CCC5)nc4c3C[C@H](C)[C@@H](c3nc(N)cc(C)c3C(F)(F)F)C4)C2)n1 (single isomer, unassigned) [Example 17]
≤ 6.30 | Cc1noc(/C=C/C(=O)N2CC[C@@H](N(C)c3nc(OC[C@@]45CCCN4C[C@H](F)C5)nc4c3CCN(c3nc(N)cc(C)c3C(F)(F)F)C4)C2)n1 [Example 95, (E)-1-((R)-3-((7-(6-amino-4-methyl-3-(trifluoromethyl)pyridin-2-yl)-2-(((2R,7aS)-2-fluorotetrahydro-1H-pyrrolizin-7a(5H)-yl)methoxy)-5,6,7,8-tetrahydropyrido[3,4-d]pyrimidin-4-yl)(methyl)amino)pyrrolidin-1-yl)-3-(3-methyl-1,2,4-oxadiazol-5-yl)prop-2-en-1-one]
> 8.00 | Cc1cc(N)nc([C@@H]2Cc3nc(OC[C@@]45CCCN4C[C@H](F)C5)nc(N(C)[C@@H]4CCN(C(=O)/C=C/c5nc(C(C)(C)O)no5)C4)c3C[C@H]2C)c1C(F)(F)F [Example 89, (E)-1-((R)-3-(((6R,7R)-7-(6-amino-4-methyl-3-(trifluoromethyl)pyridin-2-yl)-2-(((2R,7aS)-2-fluorotetrahydro-1H-pyrrolizin-7a(5H)-yl)methoxy)-6-methyl-5,6,7,8-tetrahydroquinazolin-4-yl)(methyl)amino)pyrrolidin-1-yl)-3-(3-(2-hydroxypropan-2-yl)-1,2,4-oxadiazol-5-yl)prop-2-en-1-one]
6.30 to 7.00 | Cc1noc(/C=C/C(=O)N2CC[C@@H](N(C)c3nc(OC[C@@]45CCCN4C[C@H](F)C5)nc4c3C[C@H](C)[C@@H](c3nc(N)cc(C)c3C(F)(F)F)C4)C2)n1 [Example 81, (E)-1-((R)-3-(((6S,7S)-7-(6-amino-4-methyl-3-(trifluoromethyl)pyridin-2-yl)-2-(((2R,7aS)-2-fluorotetrahydro-1H-pyrrolizin-7a(5H)-yl)methoxy)-6-methyl-5,6,7,8-tetrahydroquinazolin-4-yl)(methyl)amino)pyrrolidin-1-yl)-3-(3-methyl-1,2,4-oxadiazol-5-yl)prop-2-en-1-one]
> 8.00 | Cc1cc(N)nc(-c2ncc3c(N(C)[C@@H]4CCN(C(=O)/C=C/[C@@H]5CCN5C)C4)nc(OC[C@@]45CCCN4C[C@H](F)C5)nc3c2F)c1C(F)(F)F (single isomer, unassigned) [Example 27]
> 8.00 | Cc1cc(N)nc(-c2ncc3c(N(C)[C@@H]4CCN(C(=O)/C=C/C5CCN5C)C4)nc(OC[C@@]45CCCN4C[C@H](F)C5)nc3c2F)c1C(F)(F)F (stereo in doubt) [Example 134]
